Patent US9371330B2, “Substituted pyrazino[1,2-a]pyrimidines useful as CBP/catenin antagonists for enhancing asymmetric division of somatic stem cells” (University of Southern California, priority 2011, dated 2016)
“Also recorded” adds a separate entry of the source.

Assays:
elastin = experiment: ex vivo human skin assay, qRT-PCR of elastin; format: cell-based; conditions: 24 hrs; 5 uM ICG-001, 5 uM methylated ICG-001, 1 ug/ml RA
Description: (§1) Methods. Ex Vivo human skin assay culture conditions were based upon a paper by Varani J et al Experimental and Molecular Pathology, 2004.
(§2) Briefly, human skin (surgical waste from plastic surgery procedures) was obtained and the subcutaneous layer of fat was trimmed manually with a scalpel. The skin was then cut into small fragments about 2 mm square and placed in 6 well plates. 1 ml of keratinocyte culture medium (Gibco 10724-011) with 1% P/S (penstrep antibiotic) was added to each well. The epidermis, bathed in media was placed facing up. On the next day (overnight culture in the media above), the skin fragments were transferred to fresh wells that contained either 5 uM ICG-001, 5-uM methylated ICG-001 or 1 ug/ml of retinoic acid (RA). After 24 hrs, skin samples in culture were removed for RNA isolation and qRT-PCR analysis of genes of interest (e.g. elastin (a gene involved in skin appearance and pliability (e.g., wrinkling) and aquaporin 1, which is involved with hydration.

aquaporin 1 = experiment: ex vivo human skin assay, qRT-PCR of aquaporin 1; format: cell-based; conditions: 24 hrs; 5 uM ICG-001, 5 uM methylated ICG-001, 1 ug/ml RA
Description: as §1, §2

normal stem cell niche = experiment: aging mice, long term topical administration; format: in vivo, mouse; conditions: 12 months (6 to 18 months of age)
Source text: Left mouse is control, whereas right mouse received CBP/catenin (e.g., CBP/β-catenin) antagonists (topical Laura-8 as disclosed herein) for 12 months (from 6 months of age to 18 months of age).

hair-less mouse model = experiment: hair growth in hair-less mouse model; format: in vivo; conditions: vs petroleum jelly
Description: The ability of CBP/β-catenin antagonist to stimulate hair growth in a hair-less mouse model was tested. In brief, the animals were treated with either petroleum jelly or Laura-8 for 16 days. In addition, skin samples from each animal were taken and examined for hair-follicle formulation.

skin injury = skin injury repair in normal and hair-less mice; format: in vivo, mouse; conditions: 500 μM in vaseline, once a day for eight days
Description: The ability of CBP/catenin (e.g., CBP/β-catenin) antagonist to accelerate injured skin repair in normal mice models (having full hair growth and normal fur) and hair-less mice models was tested. In brief, on day 0, the animals were subjected to skin injury in two spots on the back, hind end of each animal. Each skin injury spot was treated with 500 μM of either Vaseline (petrolatum) (vehicle) or Laura-8 in vaseline once a day for eight days.

[1] = test system: murine embryonic stem cells (mESCs); experiment: long-term culture of murine embryonic stem cells; format: cell-based, mouse; conditions: Wnt-dependent
Source text: (§3) IQ-1. In addition to ICG-001, a screen of a large chemical library for maintenance of pluripotency in mES cells led to the identification of another compound, termed IQ-1 (FIG. 2b). […] I-Q-1 diminishes the interaction between p300 and beta-catenin thereby increasing the CBP/beta-catenin interaction (24).

[2] = test system: PR72/130 subunit of the serine/threonine phosphatase PP2A; experiment: binding to PP2A subunit
Source text: as §3

[3] = test system: mitotic cells in the ventricular zone (VZ); experiment: symmetric versus asymmetric divisions (Par3 distribution) in the ventricular zone of mouse embryos; format: in vivo
Source text: Taking advantage of the ready uptake and penetration through the placental barrier of applicant's small molecule Wnt modulators, applicant designed a series of experiments to investigate symmetric versus asymmetric divisions in the ventricular zone (VZ) of the brain during mouse embryonic development. Timed pregnant mice were topically treated for various time periods (1-3 days) with DMSO (vehicle control), the CBP/catenin antagonist ICG-001 or the p300/catenin antagonist IQ-1. Using a previously described protocol (56), the localization of […] (Par3) and DNA was examined in mitotic cells in the VZ. Par3 distributes symmetrically in cells that divide symmetrically and asymmetrically in cells that divide asymmetrically, whereas the DNA distributes symmetrically between the 2 cells. Using fluorescence microscopy, the percentage of mitotic cells dividing symmetrically or asymmetrically could be quantified. […] Antagonizing the CBP/catenin interaction with ICG-001 had no apparent effect yielding similarly, approximately 21% asymmetric divisions. […] Importantly, this decrease in asymmetric divisions upon treatment with IQ-1 could be rescued back essentially to control levels (i.e. ˜21%) by treatment with a 2-fold excess of ICG-001. Even further divergence in symmetric versus asymmetric divisions could be seen upon prolonged treatments. For example, treatment with IQ-1 (i.e., antagonizing p300/catenin interaction leading to increased usage of CBP) for 3 days (E13.5-16.5) decreased asymmetric divisions compared to control from 31% to 7%. […] This reporter mouse expresses EGFP, driven by the Tis21 promoter, in cells that have undergone neurogenic differentiative divisions.
For example, Bultje et al (Bultje R Neuron 63, 189-202, 2009) describe an assay to measure asymmetric distributions in the ventricular zone (vz) to evaluate asymmetric divisions during neurogenesis. Essentially this involves treating the animal (either adult or in utero) for a set period of time with compounds (either p.o., s.c., i.v. or topically) with compounds and then sacrificing the animal and examining the Par3 distribution (e.g., via immunohistochemistry) in mitotic cells vs. DNA distribution (e.g., using DAPI staining) Par3 distributes equally among the two daughter cells during symmetric division and unequally (essentially all in one daughter cell) during asymmetric differentiation.

## C[C@H]1C2N(C(=O)NCc3ccccc3)CCC(=O)N2[C@@H](Cc2ccc(O)cc2)C(=O)N1Cc1cccc2ccccc12 (stereo partly drawn) [Me-ICG-001, (6S,9S)—N-benzyl-6-(4-hydroxybenzyl)-9-methyl-8-(naphthalen-1-ylmethyl)-4,7-dioxooctahydro-1H-pyrazino[1,2-a]pyrimidine-1-carboxamide]
elastin
  expression of elastin: larger increase
Aquaporin 1
  expression of aquaporin 1: larger increase

## CCCCCCCCCCCC(=O)Oc1ccc(C[C@H]2C(=O)N(Cc3cccc4ccccc34)C[C@@H]3N(C(=O)NCc4ccccc4)CCC(=O)N32)cc1 [Laura-8]
Normal stem cell niche
  depletion of the normal stem cell niche: does not deplete the normal stem cell niche
hair-less mouse model; 16 days
  hair growth: significant hair growth
hair-less mouse model
  new hair-follicle formation (skin pathology): new hair-follicles were formed; also recorded: substantial new hair-follicle formation
Skin injury
  skin healing: significantly accelerated skin healing process

## CC(=O)c1ccc(N=NC(C(N)=O)=C2NC(C)(C)Cc3ccccc32)cc1 [IQ-1]
[1]
  maintenance of pluripotency: maintains the pluripotency
[2]
  binding to PR72/130: binds to the PR72/130 subunit of the serine/threonine phosphatase PP2A
[3]; 3 days (E13.5-16.5)
  asymmetric divisions in the VZ: 7%
[3]; topical or oral administration to pregnant mice
  effect on number of asymmetric divisions: decreases the number of asymmetric divisions
[3]; topical to timed pregnant mice, 1 day (E13.5 to 14.5)
  asymmetric divisions in the VZ: approximately 9%
